Assay results: patent publication US7750158B2, “Cannabinoid receptor ligands” (Schering Corporation, priority 2004, dated 2010)
Where two headings read alike, the source gives them in different places.

Experiments:
[1] = biological target: T1, recombinant human cannabinoid CB1 receptor (Homo sapiens, UniProt P21554); assay: [3H] CP-55,940 competition binding to recombinant cannabinoid receptor membranes (CB1), reported as the CB1/CB2 selection ratio; settings: Ki CB1 / Ki CB2, same binding assay
T1 construct: purchased Receptor Biology RB-HCB1
T1 sequence (P21554 whole entry): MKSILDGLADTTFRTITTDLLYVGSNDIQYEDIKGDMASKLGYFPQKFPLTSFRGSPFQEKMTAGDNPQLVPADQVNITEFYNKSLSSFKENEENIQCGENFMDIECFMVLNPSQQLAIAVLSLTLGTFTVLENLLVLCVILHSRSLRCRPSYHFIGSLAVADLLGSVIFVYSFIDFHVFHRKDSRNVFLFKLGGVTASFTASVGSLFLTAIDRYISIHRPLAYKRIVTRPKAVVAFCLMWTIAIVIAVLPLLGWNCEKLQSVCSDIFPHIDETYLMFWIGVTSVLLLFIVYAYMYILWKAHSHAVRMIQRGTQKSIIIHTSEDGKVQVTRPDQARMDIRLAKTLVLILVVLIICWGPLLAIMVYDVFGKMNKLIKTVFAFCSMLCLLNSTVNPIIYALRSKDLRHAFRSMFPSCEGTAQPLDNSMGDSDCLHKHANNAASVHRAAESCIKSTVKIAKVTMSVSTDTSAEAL
Description: (§1) Potential cannabinoid receptor ligands were screened for the ability to compete with [^3H] CP-55,940, which is a known receptor ligand, for binding to recombinant cannabinoid receptors. Test compounds were serially diluted in Diluent Buffer (50 mM Tris pH 7.1, 1 mM EDTA, 3 mM MgCl2, 0.1% BSA, 10% DMSO, 0.36% methyl cellulose (Sigma M-6385)) from stocks prepared in 100% DMSO. Aliquots (10 μL) were transferred into 96-well microtiter plates. Membrane preparations of recombinant human cannabinoid CB2 receptor (Receptor Biology #RB-HCB2) or recombinant human cannabinoid CB1 receptor (Receptor Biology #RB-HCB1) were diluted to 0.3 mg/mL in Binding Buffer (50 mM Tris pH 7.2, 1 mM EDTA, 3 mM MgCl2, 0.1% BSA). Aliquots (50 μL) were added to each well of the microtiter plate. The binding reactions were initiated by addition of [^3H] CP-55,940 (New England Nuclear #NET 1051; specific activity=180 Ci/mmol) to each well of the microtiter plate. Each 100 μl reaction mixture contained 0.48 nM [^3H] CP-55,940, 15 μg membrane protein in binding buffer containing 1% DMSO and 0.036% methyl cellulose. Following incubation for 2 hours at room temperature, the reactions were filtered through 0.5% polyethylenimine-coated GF/C filter plates (UniFilter-96, Packard) with a TomTec Mark 3U Harvester (Hamden, Conn.). The filter plate was washed 5 times with binding buffer, rotated 180°, then re-washed 5 times with binding buffer. Bound radioactivity was quantitated following addition of 30 μl of Packard Microscint 20 scintillant in a Packard TopCount NXT microplate scintillation counter. Non-linear regression analysis of the resulting data was performed using Prism 2.0b (GraphPad, San Diego, Calif.).

[2] = biological target: T2, recombinant human cannabinoid CB2 receptor (Homo sapiens, UniProt P34972); assay: [3H] CP-55,940 competition binding to recombinant cannabinoid receptor membranes (CB2)
T2 construct: purchased Receptor Biology RB-HCB2
T2 sequence (P34972 whole entry): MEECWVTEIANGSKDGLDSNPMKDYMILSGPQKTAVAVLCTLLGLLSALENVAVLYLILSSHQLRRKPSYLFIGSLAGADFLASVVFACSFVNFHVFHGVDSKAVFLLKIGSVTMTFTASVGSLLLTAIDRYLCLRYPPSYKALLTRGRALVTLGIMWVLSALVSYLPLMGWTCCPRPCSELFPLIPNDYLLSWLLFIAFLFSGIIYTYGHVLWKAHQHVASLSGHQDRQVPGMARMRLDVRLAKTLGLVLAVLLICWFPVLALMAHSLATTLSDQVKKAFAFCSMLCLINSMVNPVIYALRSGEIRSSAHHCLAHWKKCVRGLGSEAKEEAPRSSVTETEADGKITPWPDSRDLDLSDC
Description: as §1
The activities (potencies) for the compounds of the invention are determined by measuring their Ki values.

[3] = 0.48 nM [3H] CP-55,940, 15 μg membrane protein, 2 hours at room temperature, read-out: Ki values (CB2 receptor)

selection ratio of the Ki value of the CB1 receptor to that of the CB2 receptor [1] | Ki [2, 3] [nM] | Structure (SMILES) | Ki [2] [nM]
~2700 | 0.65 | CS(=O)(=O)NCC1C2CN(S(=O)(=O)c3ccc(Cl)cc3S(=O)(=O)c3ccccc3F)CC12 (stereo not shown) [compound 9] | 
about 1000 | 1.46 | O=S(=O)(c1ccccc1F)c1cc(Cl)ccc1S(=O)(=O)N1CC2C(CNS(=O)(=O)C(F)(F)F)C2C1 (stereo not shown) [compound 11] | 
~3400 | 1 | CS(=O)(=O)NCC1C2CN(S(=O)(=O)c3cc4ccccc4n3S(=O)(=O)c3ccccc3F)CC12 (stereo not shown) [compound 13] | 
about 15000 | 0.24 | CS(=O)(=O)NC1CC12CCN(S(=O)(=O)c1cc3ccccc3n1S(=O)(=O)c1ccccc1F)CC2 (racemic) [compound 20] | 
~400 | 1 | O=S(=O)(c1cc2ccccc2n1S(=O)(=O)c1ccccc1F)N1CCC2(CC1)C[C@@H]2NS(=O)(=O)C(F)(F)F [compound 22] | 
~4100 | 3.3 | O=S(=O)(c1cc2cccnc2n1S(=O)(=O)c1ccccc1F)N1CC2C(CNS(=O)(=O)C(F)(F)F)C2C1 (stereo not shown) [compound 60] | 
~6300 | 1.5 | O=S(=O)(c1ccccn1)c1cc(Cl)ccc1S(=O)(=O)N1CC2C(CNS(=O)(=O)C(F)(F)F)C2C1 (stereo not shown) [compound 6] | 
~3500 | 0.4 | O=S(=O)(c1cc2ccccc2n1S(=O)(=O)c1ccccn1)N1CCC2(CC1)CC2NS(=O)(=O)C(F)(F)F (stereo not shown) [compound 41] | 

Structure (SMILES) | selection ratio of the Ki value of the CB1 receptor to that of the CB2 receptor [1] | Ki [2, 3] [nM] | Ki [2] [nM]
CCC1(CNCC(F)(F)F)CC2CCC(C1)N2S(=O)(=O)c1ccc(Cl)cc1S(=O)(=O)c1ccccn1 (stereo not shown) [compound 58] | ~770 |  | 41
CCC1(CNS(=O)(=O)C(F)(F)F)CC2CCC(C1)N2S(=O)(=O)c1ccc(Cl)cc1S(=O)(=O)c1ccccn1 (stereo not shown) [compound 59] | ~52 |  | 25.9
CC(C)n1c(S(=O)(=O)N2CC3C(CNC(=O)OC(C)(C)C)C3C2)c(S(=O)(=O)c2ccccc2F)c2ccccc21 (stereo not shown) [compound 62] | ~1.9 |  | 28
Cn1c(S(=O)(=O)N2CCC3(CC2)CC3NS(=O)(=O)C(F)(F)F)c(S(=O)(=O)c2ccccc2F)c2ccccc21 (stereo not shown) [compound 61] | ~1200 |  | 3.9
O=S(=O)(c1ccccn1)c1cc(C(F)(F)F)ccc1S(=O)(=O)N1CCC2(CC1)CC2NS(=O)(=O)C(F)(F)F (stereo not shown) [compound 31] | ~71 |  | 5
CS(=O)(=O)NCC1CC2CCC(C1)N2S(=O)(=O)c1cc2ccccc2n1S(=O)(=O)c1ccccc1F (stereo not shown) [compound 47] | ~790 |  | 7
